Experimental findings from patent publication US20250345446A1 (Draupnir Bio ApS, priority 2022, published 2025) are described below.

Assay [1] has as its target T1, soluble ectodomain of sortilin-6his (Homo sapiens, UniProt Q99523, V650M).
T1 construct: the soluble ectodomain of sortilin-6his is measured by microscale thermophoresis (MST)
The assay is described as follows: MST binding to soluble ectodomain of sortilin-6his.

Assay [2] has as its system HEK293 cells expressing full length sortilin receptor. The assay is described as follows: Cellular uptake of AlexaFluor488-anti-DNP antibody. Type of assay: cell-based. Conditions: for AUC score, target internalization: Table 7, AlexaFluor488-anti-DNP antibody (100 nM), 3 h, DNP warhead compounds. The source says:
In this example, the small molecule degraders consist of a sortilin binder linked to warhead DNP to target anti-DNP antibodies (BF001 to BF016)
Cellular uptake of AlexaFluor488-anti-DNP antibody (Thermo Fisher) was investigated in HEK293 cells expressing full length sortilin receptor in a methodology analogous to example 3.

Assay [3] addresses streptavidin, bifunctional compound and sortilin-6his (UniProt P22629+Q99523, V650M). The assay is described as follows: TR-FRET ternary complex formation streptavidin / bifunctional peptide / sortilin-6his. Conditions: Table 2; […] incubation, HTRF ratio 665/620 nm. (In general: TR-FRET usually uses a lanthanide donor and a delayed reading to cut background.)
Description: In these experiments, the compounds of interest were titrated over 24-point in a 384-well TTP LVDS plate (SPT Labtech) to a final buffer composition of 50 mM Bis-Tris Propane pH 8, 50 mM NaCl, 0.05% Tween20, with or without 10% DMSO using a Mosquito LV pipetting robot (SPT Labtech).
The reaction was allowed to incubate for 2.5 hours at room temperature, at which point the HTRF signal ratio at 665/620 nm was determined using a plate reader (ClarioStar, BMG Labtech). All reactions were run in triplicates and data was represented as HTRF ratio as a function of bifunctional compound concentration.
Assay [4] concerns the target T2, Sortilin-6His (Homo sapiens (Human), UniProt Q99523 78-755).
T2 construct: In MST it was labelled non-covalently with RED-tris-NTA; also called soluble ectodomain of sortilin-6his; fluorescent sortilin-6his
The assay is described as follows: TR-FRET (HTRF) ternary complex streptavidin-d2 / biotin-peptide / sortilin-6His; AUC score: + <5000, ++ >5000.

Assay [5] has as its target T2, Sortilin-6His. Nature of the assay: MST on labelled sortilin-6his ectodomain; KD score: ++ <100 nM, + 100-2000 nM.
Where [6] appears, read: Table 1, biotin-linker-peptide bifunctional compounds, MST, read-out: KD score, binding to sortilin (Kd).

Where two headings read alike, the source gives them in different places. Residues, ends and D or L forms follow the SMILES beside them. *: point of attachment. Biotin = O=C1N[C@H]2[C@H](CS[C@H]2CCCCC(=O)*)N1

T2 sequence (Q99523 78-755 V650M limits assumed): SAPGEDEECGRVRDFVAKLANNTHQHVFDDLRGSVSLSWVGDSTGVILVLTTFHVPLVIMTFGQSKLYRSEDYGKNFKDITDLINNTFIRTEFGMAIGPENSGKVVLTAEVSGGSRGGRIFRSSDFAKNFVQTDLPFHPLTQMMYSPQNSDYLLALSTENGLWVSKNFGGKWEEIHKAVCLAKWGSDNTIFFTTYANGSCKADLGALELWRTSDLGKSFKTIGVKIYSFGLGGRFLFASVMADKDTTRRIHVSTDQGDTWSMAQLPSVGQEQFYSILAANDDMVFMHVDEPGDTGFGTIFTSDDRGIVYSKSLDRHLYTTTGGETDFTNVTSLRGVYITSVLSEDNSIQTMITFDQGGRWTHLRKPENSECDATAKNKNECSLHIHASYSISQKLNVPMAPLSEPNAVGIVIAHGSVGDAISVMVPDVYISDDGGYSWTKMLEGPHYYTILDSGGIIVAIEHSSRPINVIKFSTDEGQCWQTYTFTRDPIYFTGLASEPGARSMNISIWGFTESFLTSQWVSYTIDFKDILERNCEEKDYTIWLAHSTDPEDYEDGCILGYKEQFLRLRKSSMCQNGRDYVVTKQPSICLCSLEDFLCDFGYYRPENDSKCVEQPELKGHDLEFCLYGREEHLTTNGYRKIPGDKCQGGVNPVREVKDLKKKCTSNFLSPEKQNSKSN
T1 sequence (Q99523 with tags, fused parts or gaps V650M): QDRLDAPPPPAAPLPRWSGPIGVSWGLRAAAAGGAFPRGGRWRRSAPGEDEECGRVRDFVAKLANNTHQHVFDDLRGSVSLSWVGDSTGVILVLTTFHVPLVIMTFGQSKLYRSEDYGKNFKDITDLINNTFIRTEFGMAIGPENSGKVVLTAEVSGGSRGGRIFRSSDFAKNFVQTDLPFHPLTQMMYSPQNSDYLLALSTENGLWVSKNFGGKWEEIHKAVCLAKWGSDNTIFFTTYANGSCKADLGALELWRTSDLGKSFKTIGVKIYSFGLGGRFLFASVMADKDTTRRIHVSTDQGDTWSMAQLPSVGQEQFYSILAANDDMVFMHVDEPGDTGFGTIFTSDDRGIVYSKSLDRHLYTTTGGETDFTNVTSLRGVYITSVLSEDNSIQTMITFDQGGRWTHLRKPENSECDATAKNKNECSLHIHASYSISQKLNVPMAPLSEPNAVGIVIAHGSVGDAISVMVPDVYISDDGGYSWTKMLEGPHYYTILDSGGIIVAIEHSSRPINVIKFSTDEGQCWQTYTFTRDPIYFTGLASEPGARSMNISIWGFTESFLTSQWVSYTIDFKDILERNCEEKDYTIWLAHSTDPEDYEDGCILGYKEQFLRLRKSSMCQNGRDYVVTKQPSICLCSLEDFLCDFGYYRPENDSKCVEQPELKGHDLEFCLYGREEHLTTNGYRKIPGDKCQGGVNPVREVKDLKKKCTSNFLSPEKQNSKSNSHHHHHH

For orientation: Kd means the constant that tells how readily two partners part at equilibrium. In the case of `CC(C)(C)CC[C@H](NC(=O)c1ccc(Oc2cccc(C(=O)NCCOCCOCCOCCOCCOCCOCCOCCNc3ccc([N+](=O)[O-])cc3[N+](=O)[O-])c2)nc1)C(=O)O` [BF006, (2S)-2-[[6-[3-[2-[2-[2-[2-[2-[2-[2-[2-(2,4-dinitroanilino)ethoxy]ethoxy]ethoxy]ethoxy]ethoxy]ethoxy]ethoxy]ethylcarbamoyl]phenoxy]pyridine-3-carbonyl]amino]-5,5-dimethyl-hexanoic acid], the Kd in assay [1] fell in the range of 1 to 10 nM. In addition, in assay [2] (3 h incubation, 1.9 nM to 2 μM, AlexaFluor488-anti-DNP antibody 100 nM), the “cell associated FI signal, response to concentration series (in words)” value is reported as “bell-shaped response”. For the same molecule, the “AUC score, target internalization” value in assay [2] is listed as “+ (AUC < 10.000)”.
In turn, `CC(C)(C)CC[C@H](NC(=O)c1ccc(Oc2cccc(C(=O)NCCOCCOCCOCCOCCOCCOCCNc3ccc([N+](=O)[O-])cc3[N+](=O)[O-])c2)nc1)C(=O)O` [BF008, (2S)-2-[[6-[3-[2-[2-[2-[2-[2-[2-[2-(2,4-dinitroanilino)ethoxy]ethoxy]ethoxy]ethoxy]ethoxy]ethoxy]ethylcarbamoyl]phenoxy]pyridine-3-carbonyl]amino]-5,5-dimethyl-hexanoic acid] yielded a Kd in assay [1] of 1 to 10 nM. For the same molecule, the “AUC score, target internalization” value in assay [2] is “+ (AUC < 10.000)”.
For the molecule `CC(C)(C)CC[C@H](NC(=O)c1ccc(Oc2cccc3c(C(=O)NCCCNC(=O)CCOCCOCCOCCOCCNc4ccc([N+](=O)[O-])cc4[N+](=O)[O-])cccc23)nc1)C(=O)O` [BF010, (2S)-2-[[6-[[5-[3-[3-[2-[2-[2-[2-(2,4-dinitroanilino)ethoxy]ethoxy]ethoxy]ethoxy]propanoylamino]propylcarbamoyl]-1-naphthyl]oxy]pyridine-3-carbonyl]amino]-5,5-dimethyl-hexanoic acid], the dissociation constant Kd in assay [1] fell in the range of 1 to 10 nM. Besides, in assay [2], the “AUC score, target internalization” value was “++ (AUC > 10.000)”.
In assay [1], `CC(C)(C)CC[C@H](NC(=O)c1ccc(Oc2cccc(OCCOCCOCCOCCOCCOCCOCCNc3ccc([N+](=O)[O-])cc3[N+](=O)[O-])c2)nc1)C(=O)O` [BF014, (2S)-2-[[6-[3-[2-[2-[2-[2-[2-[2-[2-(2,4-dinitroanilino)ethoxy]ethoxy]ethoxy]ethoxy]ethoxy]ethoxy]ethoxy]phenoxy]pyridine-3-carbonyl]amino]-5,5-dimethyl-hexanoic acid] gave a Kd of 10 to 250 nM. Besides, in assay [2], the “AUC score, target internalization” value is on record as “++ (AUC > 10.000)”.
In the case of `CC(C)C[C@H](NC(=O)[C@H](CC(C)C)NC(=O)[C@H](CCC(N)=O)NC(=O)[C@H](CCCNC(=N)N)NC(=O)CNC(=O)[C@H](CO)NC(=O)CNC(=O)CNC(=O)CNC(=O)CNC(=O)[C@H](CO)NC(=O)CNC(=O)CNC(=O)CCCC[C@@H]1SC[C@@H]2NC(=O)N[C@@H]21)C(=O)O` [compound 141] (Biotin-GGSGGGGSGRQLL-OH), in assay [3], the “AUC score, TR-FRET measurements of ternary complex formation” value (“AUC score, TR-FRET measurements” for short) was “+ (AUC < 5000)”. For the same molecule, in assay [1] (setting [6]), the Kd was < 100 nM.
Turning to `CC(C)C[C@H](NC(=O)[C@H](CC(C)C)NC(=O)[C@H](CCC(N)=O)NC(=O)[C@H](CCCNC(=N)N)NC(=O)[C@H](CO)NC(=O)CNC(=O)CNC(=O)CNC(=O)CNC(=O)[C@H](CO)NC(=O)CNC(=O)CNC(=O)CNC(=O)CNC(=O)[C@H](CO)NC(=O)CNC(=O)CNC(=O)CCCC[C@@H]1SC[C@@H]2NC(=O)N[C@@H]21)C(=O)O` [compound 142] (Biotin-GGSGGGGSGGGGSRQLL-OH), the “AUC score, TR-FRET measurements” value in assay [3] is given as “+ (AUC < 5000)”. In addition, the Kd in assay [1] (setting [6]) was < 100 nM.
As for `CC(C)C[C@H](NC(=O)[C@H](CC(C)C)NC(=O)[C@H](CCC(N)=O)NC(=O)[C@H](Cc1ccccc1)NC(=O)CNC(=O)[C@H](CO)NC(=O)CNC(=O)CNC(=O)CNC(=O)CNC(=O)[C@H](CO)NC(=O)CNC(=O)CNC(=O)CCCC[C@@H]1SC[C@@H]2NC(=O)N[C@@H]21)C(=O)O` [compound 145] (Biotin-GGSGGGGSGFQLL-OH), the “AUC score, TR-FRET measurements” value in assay [3] is “+ (AUC < 5000)”. The Kd in assay [1] (setting [6]) is < 100 nM.
Turning to `CC(C)C[C@H](NC(=O)[C@H](CC(C)C)NC(=O)[C@H](CCC(N)=O)NC(=O)[C@H](Cc1ccccc1)NC(=O)[C@H](CO)NC(=O)CNC(=O)CNC(=O)CNC(=O)CNC(=O)[C@H](CO)NC(=O)CNC(=O)CNC(=O)CNC(=O)CNC(=O)[C@H](CO)NC(=O)CNC(=O)CNC(=O)CCCC[C@@H]1SC[C@@H]2NC(=O)N[C@@H]21)C(=O)O` [compound 146] (Biotin-GGSGGGGSGGGGSFQLL-OH), in assay [3], the “AUC score, TR-FRET measurements” value is “++ (AUC > 5000)”. Also, the Kd in assay [1] (setting [6]) lay within 100 to 2000 nM.
For `CC(C)C[C@H](NC(=O)[C@H](CC(C)C)NC(=O)[C@H](CCC(N)=O)NC(=O)[C@H](Cc1ccccc1)NC(=O)CNC(=O)CNC(=O)CNC(=O)[C@H](CO)NC(=O)CNC(=O)CNC(=O)CNC(=O)CNC(=O)[C@H](CO)NC(=O)CNC(=O)CNC(=O)CCCC[C@@H]1SC[C@@H]2NC(=O)N[C@@H]21)C(=O)O` [compound 148] (Biotin-GGSGGGGSGGGFQLL-OH), in assay [3], the “AUC score, TR-FRET measurements” value is on record as “++ (AUC > 5000)”. Besides, in assay [1] (setting [6]), the Kd lay in the range of 100 to 2000 nM.

B1: Biotin-GGSGGGGSGGGFQLL-OH (peptide)
peptide: Biotin-GGSGGGGSGGGFQLL-OH
SMILES: CC(C)C[C@H](NC(=O)[C@H](CC(C)C)NC(=O)[C@H](CCC(N)=O)NC(=O)[C@H](Cc1ccccc1)NC(=O)CNC(=O)CNC(=O)CNC(=O)[C@H](CO)NC(=O)CNC(=O)CNC(=O)CNC(=O)CNC(=O)[C@H](CO)NC(=O)CNC(=O)CNC(=O)CCCC[C@@H]1SC[C@@H]2NC(=O)N[C@@H]21)C(=O)O
Broadly, the KD is a measure of binding affinity in units of concentration. Take B1: the “AUC of TR-FRET (HTRF ratio vs compound concentration) for ternary complex formation” value with Sortilin-6His [4] was > 5000 auc. Also, in the assay with Sortilin-6His [5], the dissociation constant KD is 100 to 2000 nM.

B2: Biotin-GGSGGGGSGGGRQLL-OH (peptide)
peptide: Biotin-GGSGGGGSGGGRQLL-OH
SMILES: CC(C)C[C@H](NC(=O)[C@H](CC(C)C)NC(=O)[C@H](CCC(N)=O)NC(=O)[C@H](CCCNC(=N)N)NC(=O)CNC(=O)CNC(=O)CNC(=O)[C@H](CO)NC(=O)CNC(=O)CNC(=O)CNC(=O)CNC(=O)[C@H](CO)NC(=O)CNC(=O)CNC(=O)CCCC[C@@H]1SC[C@@H]2NC(=O)N[C@@H]21)C(=O)O
With B2, the “AUC of TR-FRET (HTRF ratio vs compound concentration) for ternary complex formation” value with Sortilin-6His [4] is < 5000 auc. Moreover, in the assay with Sortilin-6His [5], the dissociation constant (KD) lay within 100 to 2000 nM.

B3: Biotin-GGSGGGGSGGGGSGGFQLL-OH (peptide)
peptide: Biotin-GGSGGGGSGGGGSGGFQLL-OH
SMILES: CC(C)C[C@H](NC(=O)[C@H](CC(C)C)NC(=O)[C@H](CCC(N)=O)NC(=O)[C@H](Cc1ccccc1)NC(=O)CNC(=O)CNC(=O)[C@H](CO)NC(=O)CNC(=O)CNC(=O)CNC(=O)CNC(=O)[C@H](CO)NC(=O)CNC(=O)CNC(=O)CNC(=O)CNC(=O)[C@H](CO)NC(=O)CNC(=O)CNC(=O)CCCC[C@@H]1SC[C@@H]2NC(=O)N[C@@H]21)C(=O)O
In the case of B3, the “AUC of TR-FRET (HTRF ratio vs compound concentration) for ternary complex formation” value with Sortilin-6His [4] is > 5000 auc. The KD with Sortilin-6His [5] lay in the range of 100 to 2000 nM.

B4: Biotin-GGSGGGGSGGGGSRQLL-OH (peptide)
peptide: Biotin-GGSGGGGSGGGGSRQLL-OH
SMILES: CC(C)C[C@H](NC(=O)[C@H](CC(C)C)NC(=O)[C@H](CCC(N)=O)NC(=O)[C@H](CCCNC(=N)N)NC(=O)[C@H](CO)NC(=O)CNC(=O)CNC(=O)CNC(=O)CNC(=O)[C@H](CO)NC(=O)CNC(=O)CNC(=O)CNC(=O)CNC(=O)[C@H](CO)NC(=O)CNC(=O)CNC(=O)CCCC[C@@H]1SC[C@@H]2NC(=O)N[C@@H]21)C(=O)O
As for B4, the “AUC of TR-FRET (HTRF ratio vs compound concentration) for ternary complex formation” value with Sortilin-6His [4] was < 5000 auc. In addition, the KD in the assay with Sortilin-6His [5] was < 100 nM.

B5: Biotin-GGSGGGGSGGGGSFQLL-OH (peptide)
peptide: Biotin-GGSGGGGSGGGGSFQLL-OH
SMILES: CC(C)C[C@H](NC(=O)[C@H](CC(C)C)NC(=O)[C@H](CCC(N)=O)NC(=O)[C@H](Cc1ccccc1)NC(=O)[C@H](CO)NC(=O)CNC(=O)CNC(=O)CNC(=O)CNC(=O)[C@H](CO)NC(=O)CNC(=O)CNC(=O)CNC(=O)CNC(=O)[C@H](CO)NC(=O)CNC(=O)CNC(=O)CCCC[C@@H]1SC[C@@H]2NC(=O)N[C@@H]21)C(=O)O
B5: in the assay with Sortilin-6His [4], the “AUC of TR-FRET (HTRF ratio vs compound concentration) for ternary complex formation” value was > 5000 auc. In addition, the KD in the assay with Sortilin-6His [5] was in the range of 100 to 2000 nM.

B6: Biotin-GGSGGGGSGRQLL-OH (peptide)
peptide: Biotin-GGSGGGGSGRQLL-OH
SMILES: CC(C)C[C@H](NC(=O)[C@H](CC(C)C)NC(=O)[C@H](CCC(N)=O)NC(=O)[C@H](CCCNC(=N)N)NC(=O)CNC(=O)[C@H](CO)NC(=O)CNC(=O)CNC(=O)CNC(=O)CNC(=O)[C@H](CO)NC(=O)CNC(=O)CNC(=O)CCCC[C@@H]1SC[C@@H]2NC(=O)N[C@@H]21)C(=O)O
Turning to B6, the “AUC of TR-FRET (HTRF ratio vs compound concentration) for ternary complex formation” value with Sortilin-6His [4] was < 5000 auc. In the assay with Sortilin-6His [5], the KD is < 100 nM.

B7: Biotin-GGSGGGGSGFQLL-OH (peptide)
peptide: Biotin-GGSGGGGSGFQLL-OH
SMILES: CC(C)C[C@H](NC(=O)[C@H](CC(C)C)NC(=O)[C@H](CCC(N)=O)NC(=O)[C@H](Cc1ccccc1)NC(=O)CNC(=O)[C@H](CO)NC(=O)CNC(=O)CNC(=O)CNC(=O)CNC(=O)[C@H](CO)NC(=O)CNC(=O)CNC(=O)CCCC[C@@H]1SC[C@@H]2NC(=O)N[C@@H]21)C(=O)O
With B7, the “AUC of TR-FRET (HTRF ratio vs compound concentration) for ternary complex formation” value in the assay with Sortilin-6His [4] is < 5000 auc. The KD with Sortilin-6His [5] was < 100 nM.
